Results reported in patent US8946266B2, “Substituted triazole and imidazole derivatives as gamma secretase modulators” (Janssen Pharmaceuticals, Inc., priority 2009, dated 2015).
Like-named read-outs stand apart in the source and are kept apart here.

What was measured:
Aβ42 = test: γ-secretase-modulating activity, Method 2: Aβ42 Alphalisa in supernatant of SKNBE2 cells carrying APP 695-wild type (Table 3b); format: cell-based; conditions: overnight
Description: (§1) Screening was carried out using SKNBE2 cells carrying the APP 695-wild type, grown in Dulbecco's Modified Eagle's Medium/Nutrient mixture F-12 (DMEM/NUT-mix F-12) (HAM) provided by Invitrogen (cat no. 10371-029) containing 5% Serum/Fe supplemented with 1% non-essential amino acids, 1-glutamine 2 mM, Hepes 15 mM, penicillin 50 U/ml (units/ml) en streptomycin 50 μg/ml. Cells were grown to near confluency.
(§2) The screening was performed using a modification of the assay as described in Citron et al (1997) Nature Medicine 3: 67. Briefly, cells were plated in a 384-well plate at 10^4 cells/well in Ultraculture (Lonza, BE12-725F) supplemented with 1% glutamine (Invitrogen, 25030-024), 1% non-essential amino acid (NEAA), penicillin 50 U/ml en streptomycin 50 μg/ml in the presence of test compound at different test concentrations. The cell/compound mixture was incubated overnight at 37° C., 5% CO2. The next day the media were assayed by two sandwich immuno-assays, for Aβ42 and Aβtotal.
(§3) Aβtotal and Aβ42 concentrations were quantified in the cell supernatant using the Aphalisa technology (Perkin Elmer). Alphalisa is a sandwich assay using biotinylated antibody attached to streptavidin coated donorbeads and antibody conjugated to acceptor beads. In the presence of antigen, the beads come into close proximity. The excitation of the donor beads provokes the release of singlet oxygen molecules that trigger a cascade of energy transfer in the acceptor beads, resulting in light emission. To quantify the amount of Aβ42 in the cell supernatant, monoclonal antibody specific to the C-terminus of Aβ42 (JRF/cAβ42/26) was coupled to the receptor beads and biotinylated antibody specific to the N-terminus of Aβ (JRF/AβN/25) was used to react with the donor beads. To quantify the amount of Aβ total in the cell supernatant, monoclonal antibody specific to the N-terminus of Aβ (JRF/AβN/25) was coupled to the receptor beads and biotinylated antibody specific to the mid region of Aβ (biotinylated 4G8) was used to react with the donor beads.
To obtain the values reported in Table 3b, the data were calculated as percentage of the maximum amount of amyloid Beta 42 measured in the absence of the test compound.
(§4) The sigmoidal dose response curves were analyzed using non-linear regression analysis with percentage of the control plotted against the log concentration of the compound. A 4-parameter equation was used to determine the IC50.
(§5) The IC50 values are shown in Table 3b (Aβtot means Aβtotal).

Aβtotal = test: γ-secretase-modulating activity, Method 2: Aβtotal Alphalisa in supernatant of SKNBE2 cells carrying APP 695-wild type (Table 3b); format: cell-based; conditions: overnight, read-out: IC50 Aβtot
Description: as §1, §2, §3, §4, §5

SMILES | IC50 (Aβ42) [nM] | IC50 (Aβtotal) [nM] | IC50 (Aβ42; Homo sapiens) [nM] | IC50 (Aβtotal; Homo sapiens) [nM]
COc1cc(-c2nc(C)n(-c3cccc(C(F)(F)F)c3)n2)ccc1-n1cnc(C)c1 [Compound 30] | 295 | > 10000 | – | –
COc1cc(-c2nc3n(n2)CCC[C@H]3c2cc(C(F)(F)F)ccc2C)ccc1-n1cnc(C)c1 [Compound 341] | 12 | 7760 | – | –
COc1cc(-c2nc(Nc3cc(F)cc(C(F)(F)F)c3)n(C)n2)ccc1-n1cnc(C)c1 [Compound 159] | 21 | > 10000 | – | –
COc1cc(-c2nc3c(-c4cccc(C(F)(F)F)c4)nccn3n2)ccc1-n1cnc(C)c1 [Compound 293] | 2340 | > 10000 | – | –
COc1cc(-c2nc(N[C@@H](C)c3ccc(F)cc3)nn2C)ccc1-n1cnc(C)c1 [Compound 62] | 3240 | > 10000 | – | –
Cc1cn(-c2ccc(-c3nc(Nc4cc(C(F)(F)F)ccc4F)n(C)n3)cc2OC(F)(F)F)cn1 [Compound 139] | 794 | > 10000 | – | –
COc1cccc(Nc2nc(-c3ccc(-n4cnc(C)c4)c(OC)c3)nn2C)c1 [Compound 186] | 78 | > 10000 | – | –
COc1cc(Nc2nc(-c3ccc(-n4cnc(C)c4)c(OC)c3)nn2C)ccc1Cl [Compound 191] | 28 | > 10000 | – | –
COc1cc(-c2nc(Nc3cc(F)ccc3F)n(C)n2)ccc1-n1cnc(C)c1 [Compound 110] | 91 | > 10000 | – | –
CNc1nc(-c2ccc(-n3cnc(C)c3)c(OC)n2)nn1-c1cccc(C(F)(F)F)c1 [Compound 92] | 933 | > 10000 | – | –
COc1cc(-c2nc(C(C)(C)O)n(C(C)c3ccc(F)cc3)n2)ccc1-n1cnc(C)c1 (racemic) [Compound 300] | 871 | > 10000 | – | –
COc1cc(-c2nc3n(n2)CCCC3c2ccccc2Cl)ccc1-n1cnc(C)c1 (stereo not shown) [Compound 256] | 21 | > 10000 | – | –
COc1cc(-c2nc(-c3ccccc3C(F)(F)F)n(C(C)C)n2)ccc1-n1cnc(C)c1 [Compound 67] | 200 | 9550 | – | –
COc1cc(-c2nc(N(C)c3ccc(F)cc3C(F)(F)F)nn2C)ccc1-n1cnc(C)c1 [Compound 53] | > 10000 | > 10000 | – | –
COc1cc(-c2nc(Nc3cccc(C#N)c3)n(C)n2)ccc1-n1cnc(C)c1 [Compound 224] | 646 | > 10000 | – | –
COc1cc(-c2nc(Nc3ccc(F)cc3C(F)(F)F)n(C(C)C)n2)ccc1-n1cnc(C)c1 [Compound 49] | 40 | 6030 | – | –
COc1cc(-c2nc(Nc3c(F)ccc(Cl)c3F)n(C)n2)ccc1-n1cnc(C)c1 [Compound 122] | 66 | > 15000 | – | –
COc1cc(-c2nc(Nc3ccc(C#N)cc3F)n(C)n2)ccc1-n1cnc(C)c1 [Compound 227] | 676 | 891 | – | –
COc1nc(-c2nc(C)n(C(C)c3ccc(F)cc3)n2)ccc1-n1cnc(C)c1 (racemic) [Compound 69] | 1260 | > 10000 | – | –
COc1cc(-c2nc(Nc3cccc(F)c3C(F)(F)F)n(C)n2)ccc1-n1cnc(C)c1 [Compound 155] | 95 | > 10000 | – | –
COc1cc(-c2nc(N(C)c3ccc(F)cc3C(F)(F)F)n(C)n2)ccc1-n1cnc(C)c1 [Compound 50] | 110 | > 10000 | – | –
COc1cc(-c2nc(-c3ccccc3C(F)(F)F)n(C)n2)ccc1-n1cnc(C)c1 [Compound 38] | 158 | > 10000 | – | –
COc1cc(-c2nc(CNc3cccc(C(F)(F)F)c3)n(C)n2)ccc1-n1cnc(C)c1 [Compound 311] | 186 | 7410 | – | –
COc1cc(-c2nc(Nc3cc(S(C)(=O)=O)ccc3F)n(C)n2)ccc1-n1cnc(C)c1 [Compound 309] | 1070 | > 10000 | – | –

SMILES | IC50 (Aβ42) [nM] | IC50 (Aβtotal) [nM] | IC50 (Aβ42; Homo sapiens) [nM] | IC50 (Aβtotal; Homo sapiens) [nM]
COc1cc(-c2nc3n(n2)CCCCC3c2ccccc2C(F)(F)F)ccc1-n1cnc(C)c1 (stereo not shown) [Compound 283] | 78 | 7940 | – | –
COc1cc(-c2nc(Nc3cc(F)c(F)cc3C(F)(F)F)n(C)n2)ccc1-n1cnc(C)c1 [Compound 142] | 59 | > 10000 | – | –
Cc1cn(-c2ccc(-c3nc(Nc4cc(C(F)(F)F)ccc4F)n(C)n3)nc2C)cn1 [Compound 319] | 490 | > 10000 | – | –
COc1cc(-c2nc(N3CCCC(c4ccccc4)C3)n(C(C)C)n2)ccc1-n1cnc(C)c1 (stereo not shown) [Compound 79] | – | – | 36 | 6610
COc1cc(-c2nc(Nc3cc(C(F)(F)F)ccc3F)n(C(C)C)n2)ccc1-n1cnc(C)c1 [Compound 178] | 21 | 7940 | – | –
COc1cc(-c2nc(C3(c4ccc(F)cc4)CC3)nn2C)ccc1-n1cnc(C)c1 [Compound 60] | 8510 | > 10000 | – | –
COc1cc(-c2nc(N3CCOc4ccccc43)n(C)n2)ccc1-n1cnc(C)c1 [Compound 325] | 182 | > 10000 | – | –
COc1cc(-c2nc3c(-c4ccccc4OC(F)(F)F)cccn3n2)ccc1-n1cnc(C)c1 [Compound 288] | 151 | > 10000 | – | –
COc1ccc(Cl)cc1Nc1nc(-c2ccc(-n3cnc(C)c3)c(OC)c2)nn1C [Compound 192] | 41 | 9550 | – | –
COc1cc(-c2nc(Sc3cccc(C(F)(F)F)c3)n(C)n2)ccc1-n1cnc(C)c1 [Compound 249] | – | – | 646 | > 10000
Cc1cn(-c2ccc(-c3nc(Nc4cccc(C(F)(F)F)c4)n(C)n3)cc2)cn1 [Compound 206] | 166 | 8130 | – | –
COc1cc(-c2nc(Nc3cc(C(F)(F)F)c(Cl)cc3F)n(C)n2)ccc1-n1cnc(C)c1 [Compound 212] | 17 | > 10000 | – | –
COc1cc(-c2nc(Nc3cccc(C(F)(F)F)c3)n(CC(F)(F)F)n2)ccc1-n1cnc(C)c1 [Compound 145] | 38 | 2240 | – | –
COc1cc(-c2nc(Cc3ccc(F)cc3)n(C)n2)ccc1-n1cnc(C)c1 [Compound 22] | 479 | > 10000 | – | –
COc1cc(-c2nc(Nc3cc(F)c(C(F)(F)F)cc3F)n(C)n2)ccc1-n1cnc(C)c1 [Compound 141] | 47 | > 10000 | – | –
COc1cc(-c2nc3c(Nc4cccc(C(F)(F)F)c4)cccn3n2)ccc1-n1cnc(C)c1 [Compound 289] | 708 | > 10000 | – | –
COc1ccc(C(F)(F)F)c(Nc2nc(-c3ccc(-n4cnc(C)c4)c(OC)c3)nn2C)c1 [Compound 218] | 14 | > 10000 | – | –
COc1cc(-c2nc(C)n(-c3ccccc3C(F)(F)F)n2)ccc1-n1cnc(C)c1 [Compound 19] | – | – | 162 | > 10000
COc1cc(-c2nc3n(n2)CCC[C@H]3c2ccc(F)cc2C)ccc1-n1cnc(C)c1 [Compound 333] | 26 | > 10000 | – | –
COc1cc(-c2nc3n(n2)CCOC3c2ccccc2C(F)(F)F)ccc1-n1cnc(C)c1 (stereo not shown) [Compound 279] | – | – | 62 | > 10000
COc1cc(-c2nc(Nc3ccc(F)c(F)c3)n(C)n2)ccc1-n1cnc(C)c1 [Compound 112] | 129 | 9120 | – | –
COc1cc(-c2nc(-c3ccc(F)cc3)n(C3CCCC3)n2)ccc1-n1cnc(C)c1 [Compound 41] | 407 | > 10000 | – | –
COc1cccc(-c2nc(-c3ccc(-n4cnc(C)c4)c(OC)c3)nn2C(C)C)c1 [Compound 37] | 85 | 11200 | – | –
